The source of these data is ChEMBL document CHEMBL4825753 (J Med Chem, 2021).

The nature of data set [1]: Lipophilicity, log D of the compound at pH 7.4. Format: physicochemical. Particulars: buffer.
The target of data set [2] is T1, Tyrosine-protein kinase receptor TYRO3 (Homo sapiens, UniProt Q06418).
T1 sequence (Q06418 whole entry): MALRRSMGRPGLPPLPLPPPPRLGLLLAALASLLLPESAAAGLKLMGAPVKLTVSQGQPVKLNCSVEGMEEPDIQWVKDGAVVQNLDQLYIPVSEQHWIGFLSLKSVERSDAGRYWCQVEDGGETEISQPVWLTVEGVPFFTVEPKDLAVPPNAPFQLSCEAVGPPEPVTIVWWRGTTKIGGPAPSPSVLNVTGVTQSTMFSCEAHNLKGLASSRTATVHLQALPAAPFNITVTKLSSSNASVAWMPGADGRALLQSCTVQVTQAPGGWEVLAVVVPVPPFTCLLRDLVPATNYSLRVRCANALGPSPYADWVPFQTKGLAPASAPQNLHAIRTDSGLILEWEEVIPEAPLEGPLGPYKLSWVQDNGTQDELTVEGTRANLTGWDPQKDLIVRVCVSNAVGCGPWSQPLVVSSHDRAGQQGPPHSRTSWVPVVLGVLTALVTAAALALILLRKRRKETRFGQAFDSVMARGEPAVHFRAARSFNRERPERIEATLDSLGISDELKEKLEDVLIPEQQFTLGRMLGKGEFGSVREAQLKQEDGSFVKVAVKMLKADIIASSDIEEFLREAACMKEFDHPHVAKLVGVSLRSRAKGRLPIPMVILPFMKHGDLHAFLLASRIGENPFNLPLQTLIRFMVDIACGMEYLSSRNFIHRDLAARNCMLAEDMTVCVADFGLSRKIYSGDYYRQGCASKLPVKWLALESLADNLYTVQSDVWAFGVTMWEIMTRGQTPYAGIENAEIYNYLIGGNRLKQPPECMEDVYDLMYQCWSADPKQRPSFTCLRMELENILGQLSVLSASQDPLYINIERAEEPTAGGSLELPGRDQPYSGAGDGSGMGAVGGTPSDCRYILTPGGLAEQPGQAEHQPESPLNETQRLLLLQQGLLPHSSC
The data set can be described thus: Inhibition of FLAG-tagged Tyro3 (unknown origin) transfected in Cos-7 cells assessed as phosphorylation level incubated for 1 hr by ELISA. In kind it is cell-based. (An ELISA detects its analyte on a solid surface through an enzyme-linked reagent.)

Data set [3] deals with T2, Tyrosine-protein kinase receptor UFO (Homo sapiens, UniProt P30530).
T2 sequence (P30530 whole entry): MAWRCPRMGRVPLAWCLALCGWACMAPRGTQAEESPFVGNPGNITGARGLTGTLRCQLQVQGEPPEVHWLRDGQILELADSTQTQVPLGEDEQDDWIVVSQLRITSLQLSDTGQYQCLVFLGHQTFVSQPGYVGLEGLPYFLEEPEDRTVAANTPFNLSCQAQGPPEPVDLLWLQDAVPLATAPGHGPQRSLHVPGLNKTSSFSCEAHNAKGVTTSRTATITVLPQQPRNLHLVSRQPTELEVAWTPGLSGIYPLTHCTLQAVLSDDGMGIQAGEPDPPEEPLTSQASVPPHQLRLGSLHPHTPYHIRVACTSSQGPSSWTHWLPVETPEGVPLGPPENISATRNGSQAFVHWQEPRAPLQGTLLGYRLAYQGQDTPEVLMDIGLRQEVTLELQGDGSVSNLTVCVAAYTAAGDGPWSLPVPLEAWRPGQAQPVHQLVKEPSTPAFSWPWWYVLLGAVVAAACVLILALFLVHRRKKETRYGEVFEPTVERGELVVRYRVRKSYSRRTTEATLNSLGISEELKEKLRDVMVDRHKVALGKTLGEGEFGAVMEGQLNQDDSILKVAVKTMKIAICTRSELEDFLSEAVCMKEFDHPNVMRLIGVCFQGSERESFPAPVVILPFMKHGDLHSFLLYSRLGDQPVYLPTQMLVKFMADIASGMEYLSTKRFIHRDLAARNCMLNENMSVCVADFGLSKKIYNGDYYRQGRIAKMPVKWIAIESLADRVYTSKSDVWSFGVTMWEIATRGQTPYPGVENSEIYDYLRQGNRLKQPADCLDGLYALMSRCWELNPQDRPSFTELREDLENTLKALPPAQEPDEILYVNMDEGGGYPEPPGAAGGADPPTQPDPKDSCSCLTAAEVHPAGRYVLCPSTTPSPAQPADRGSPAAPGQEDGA
The data set can be described thus: Inhibition of FLAG-tagged AXL (unknown origin) transfected in Cos-7 cells assessed as phosphorylation level incubated for 1 hr by ELISA. Format: cell-based.

A short description of data set [4]: Induction efferocytosis in human PBMC assessed as CD14-positive monocytes.
A short description of data set [5]: AUC in C57BL/6J mouse at 100 mg/kg, po measured up to 24 hrs. In kind it is ADME, organism-based. Set-up: route oral, dose 100 mg/kg, time <=24. Particulars: in vivo.
Data set [6] deals with T3, Receptor-type tyrosine-protein kinase FLT3 (Homo sapiens, UniProt P36888).
T3 sequence (P36888 whole entry): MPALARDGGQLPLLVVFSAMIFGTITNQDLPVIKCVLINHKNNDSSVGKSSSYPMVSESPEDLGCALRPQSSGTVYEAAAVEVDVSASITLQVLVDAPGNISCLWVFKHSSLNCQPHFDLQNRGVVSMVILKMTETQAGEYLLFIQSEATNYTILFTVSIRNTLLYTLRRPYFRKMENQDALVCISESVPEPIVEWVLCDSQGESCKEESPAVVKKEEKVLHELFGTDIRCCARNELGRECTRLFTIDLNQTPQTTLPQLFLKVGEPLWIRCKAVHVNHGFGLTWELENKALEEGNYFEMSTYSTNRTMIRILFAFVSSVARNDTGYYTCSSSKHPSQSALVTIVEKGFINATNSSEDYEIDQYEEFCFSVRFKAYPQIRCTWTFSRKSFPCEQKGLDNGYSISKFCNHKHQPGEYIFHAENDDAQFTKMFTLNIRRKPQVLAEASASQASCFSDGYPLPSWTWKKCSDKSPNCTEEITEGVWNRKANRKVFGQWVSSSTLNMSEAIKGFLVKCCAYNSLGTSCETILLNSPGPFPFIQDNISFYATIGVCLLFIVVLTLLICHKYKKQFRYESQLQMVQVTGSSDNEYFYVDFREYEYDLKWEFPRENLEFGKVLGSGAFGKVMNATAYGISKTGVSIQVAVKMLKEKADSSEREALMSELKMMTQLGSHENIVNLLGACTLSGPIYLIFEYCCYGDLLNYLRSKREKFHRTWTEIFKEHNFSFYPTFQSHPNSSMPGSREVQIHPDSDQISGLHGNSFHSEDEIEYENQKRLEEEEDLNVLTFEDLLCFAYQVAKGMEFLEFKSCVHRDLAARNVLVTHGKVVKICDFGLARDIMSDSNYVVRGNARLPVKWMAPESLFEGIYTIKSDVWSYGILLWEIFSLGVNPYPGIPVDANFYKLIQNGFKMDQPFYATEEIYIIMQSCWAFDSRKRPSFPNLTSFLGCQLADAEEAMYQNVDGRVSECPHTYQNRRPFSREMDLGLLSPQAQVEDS
Description: Inhibition of FLAG-tagged FLT3 (unknown origin) transfected in Cos-7 cells assessed as phosphorylation level incubated for 1 hr by ELISA. Format: cell-based.

Broadly, the logD is the decadic logarithm of the distribution of all forms, ionised or not, between an organic phase and buffer at a given pH. A word on the IC50: it is the midpoint of a concentration-inhibition curve. For orientation: pIC50 means −log10 of the IC50, conventionally taken in molar units. A word on the AUC: it is the area under the concentration-time curve, a measure of exposure. Read a low AUC as less exposure. In data set [1], `Cc1cc(-c2c(C)nn(C)c2C)cnc1-c1nnc(N(C)Cc2ccc3ncc(-c4ccc(CN(C)C)cc4)n3c2)o1` gave a log distribution coefficient (logD) of 2.9. The IC50 is over 31.6 µM in data set [2], 0.1 µM in data set [3] and over 31.6 µM in data set [6]. Further, the pIC50 in data set [4] is recorded as 7.6. Further, in data set [5], the AUC at 24 h came to 71 µM·h.

Compound `Cc1cc(-c2c(C)nn(C)c2C)cnc1-c1nnc(N(C)Cc2ccc3nccn3c2)o1` registered a logD in data set [1] of 2.8. In addition, the half-inhibitory concentration (IC50) in data set [2] is over 31.6 µM; in data set [3], 6.31 µM; in data set [6] it was over 31.6 µM. The negative-log IC50 (pIC50) in data set [4] was found to be 6.

`Cc1cc(-c2c(C)nn(C)c2C)ccc1-c1nnc(N(C)Cc2ccc3nccn3c2)o1` displayed a logD in data set [1] of 3.7. Besides, the 50% inhibitory concentration (IC50) in data set [2] was over 31.6 µM; in data set [3], 0.398 µM; in data set [6] it was 20 µM. Further, the negative logarithm of the IC50 (pIC50) in data set [4] came out at 6.8. The compound further yielded an AUC at 24 h in data set [5] of 295 µM·h.
